According to patent publication US9150603B2, “2′-cyano substituted nucleoside derivatives and methods of use thereof useful for the treatment of viral diseases” (priority 2011, dated 2015):

Key:
[1] = tested on: HCV replicon cells (1b); experiment: Cell-based HCV replicon assay (replicon RNA level by Taqman real time PCR); details: HCV 1b replicon, cells harvested on day 3
Procedure: To measure cell-based anti-HCV activity of selected compounds of the present invention, replicon cells were seeded at 5000 cells/well in 96-well collagen I-coated Nunc plates in the presence of the test compound. […]. Cells were harvested on day 3 by the addition of 1× cell lysis buffer (Ambion cat #8721). The replicon RNA level was measured using real time PCR (Taqman assay). The amplicon was located in 5B. The PCR primers were: 5B.2F, […] (SEQ ID. NO. 1); 5B.2R, […] (SEQ ID. NO. 2); the probe sequence was FAM-labeled […] (SEQ ID. NO. 3). GAPDH RNA was used as endogenous control and was amplified in the same reaction as NSSB (multiplex PCR) using primers and VIC-labeled probe recommended by the manufacturer (PE Applied Biosystem). The real-time RT-PCR reactions were run on ABI PRISM 7900HT Sequence Detection System using the following program: 48° C. for 30 minutes, 95° C. for 10 minutes, 40 cycles of 95° C. for 15 sec, 60° C. for 1 minute. The ACT values (CT5B−CTGAPDH) were plotted against the concentration of test compound and fitted to the sigmoid dose-response model using XLfit4 (MDL). […]; Alternatively, to quantitate the absolute amount of replicon RNA, a standard curve was established by including serially diluted T7 transcripts of replicon RNA in the Taqman assay. All Taqman reagents were from […] Applied Biosystems. Such an assay procedure was described in detail in e.g. Malcolm et al., Antimicrobial Agents and Chemotherapy 50: 1013-1020 (2006).

[2] = biological target: T1, HCV NS5B RNA-dependent RNA polymerase (1b-BKΔ55) (Hepatitis C virus genotype 1b, UniProt P26663); experiment: Inhibition of HCV NS5B polymerase by nucleoside triphosphate analogs (radiolabeled nucleotide incorporation assay); type: biochemical
T1 construct: 5 nM NS5B (1b-BKΔ55) enzyme

[3] = tested on: replicon cells (1b-Con1); experiment: Replicon activity assay (1b-Con1 replicon cells, real-time RT-PCR); type: cell-based, HCV; details: three days post-dosing
[4] = tested on: replicon cells; experiment: Cytotoxicity in replicon cells (MTS assay); details: CC50, MTS assay, three days post dosing
[5] = tested on: Replicon (1a); experiment: microbe, parasite or virus in culture; type: cell-based, HCV; details: Hepatitis C virus; 1a replicon, marked (1a) in the cell

T1 sequence (P26663 2420-2955 limits assumed, stated change not applied): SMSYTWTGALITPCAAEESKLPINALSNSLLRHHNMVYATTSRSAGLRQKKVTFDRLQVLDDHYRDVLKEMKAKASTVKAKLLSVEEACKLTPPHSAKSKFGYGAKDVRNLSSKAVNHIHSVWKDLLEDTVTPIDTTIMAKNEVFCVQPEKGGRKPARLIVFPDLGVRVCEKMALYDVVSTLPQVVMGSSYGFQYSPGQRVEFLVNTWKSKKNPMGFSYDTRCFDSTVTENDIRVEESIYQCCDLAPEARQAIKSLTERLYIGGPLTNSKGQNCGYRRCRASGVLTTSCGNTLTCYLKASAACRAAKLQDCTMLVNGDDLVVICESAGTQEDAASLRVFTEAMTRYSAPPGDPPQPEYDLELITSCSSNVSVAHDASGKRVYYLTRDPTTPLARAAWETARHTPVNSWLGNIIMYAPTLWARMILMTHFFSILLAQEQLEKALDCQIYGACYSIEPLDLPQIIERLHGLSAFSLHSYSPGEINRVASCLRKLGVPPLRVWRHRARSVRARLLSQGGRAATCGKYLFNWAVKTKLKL

Row | SMILES | EC50 ([1]; Hepatitis C virus, 72 h) | further results
1 | CCCCOC(=O)[C@H](C)NP(=O)(OC[C@H]1O[C@@H](n2cnc3c(OCC)nc(N)nc32)[C@](C)(C#N)[C@@H]1O)Oc1ccccc1 (stereo partly shown) [Compound 13] | 1.5 µM | –
2 | COC(=O)[C@H](C)NP(=O)(OC[C@H]1O[C@@H](n2ccc(=O)[nH]c2=O)[C@](C)(C#N)[C@@H]1O)Oc1ccccc1 (stereo partly shown) [Compound 14] | 11 µM | –
3 | C[C@H](NP(=O)(OC[C@H]1O[C@@H](n2ccc(=O)[nH]c2=O)[C@](C)(C#N)[C@@H]1O)Oc1ccccc1)C(=O)OCC(C)(C)C (stereo partly shown) [Compound 15] | 5 µM | –
4 | CCOC(=O)[C@H](C)NP(=O)(OC[C@H]1O[C@@H](n2ccc(=O)[nH]c2=O)[C@](C)(C#N)[C@@H]1O)Oc1ccccc1 (stereo partly shown) [Compound 16] | 51 µM | –
5 | COC(=O)[C@H](C)NP(=O)(OC[C@H]1O[C@@H](n2ccc(=O)[nH]c2=O)[C@](C)(C#N)[C@@H]1O)Oc1ccc(Cl)cc1 (stereo partly shown) [Compound 17] | 13 µM | –
6 | CCCCOC(=O)[C@H](C)NP(=O)(OC[C@H]1O[C@@H](n2ccc(=O)[nH]c2=O)[C@](C)(C#N)[C@@H]1O)Oc1cccc2ccccc12 (stereo partly shown) [Compound 18] | 1 µM | –
7 | CCOC(=O)[C@H](C)NP(=O)(OC[C@H]1O[C@@H](n2ccc(=O)[nH]c2=O)[C@](C)(C#N)[C@@H]1O)Oc1ccc(Cl)cc1 (stereo partly shown) [Compound 19] | 15 µM | –
8 | CCCCOC(=O)[C@H](C)NP(=O)(OC[C@H]1O[C@@H](n2ccc(N)nc2=O)[C@](C)(C#N)[C@@H]1O)Oc1cccc2ccccc12 (stereo partly shown) [Compound 20] | 16 µM | –
9 | COC(=O)[C@H](C)NP(=O)(OC[C@H]1O[C@@H](n2ccc(N)nc2=O)[C@](C)(C#N)[C@@H]1O)Oc1ccccc1 (stereo partly shown) [Compound 21] | 25 µM | –
10 | C[C@H](NP(=O)(OC[C@H]1O[C@@H](n2ccc(N)nc2=O)[C@](C)(C#N)[C@@H]1O)Oc1ccccc1)C(=O)OCC(C)(C)C (stereo partly shown) [Compound 22] | 18 µM | –
11 | CC(C)OP1(=O)OC[C@H]2O[C@@H](n3ccc(N)nc3=O)[C@](C)(C#N)[C@@H]2O1 (stereo partly shown) [Compound 23] | 6.7 µM | –
12 | CC(C)OP1(=O)OC[C@H]2O[C@@H](n3ccc(N)nc3=O)[C@](C)(C#N)[C@@H]2O1 (stereo partly shown) [Compound 24] | – | EC50 [1]: 7.9 µM
13 | CCOP1(=O)OC[C@H]2O[C@@H](n3ccc(N)nc3=O)[C@](C)(C#N)[C@@H]2O1 (stereo partly shown) [Compound 25] | > 100 µM | –
14 | C[C@@]1(C#N)[C@@H]2OP(=O)(Oc3ccccc3)OC[C@H]2O[C@H]1n1ccc(N)nc1=O (stereo partly shown) [Compound 26] | 62 µM | –
15 | C[C@@]1(C#N)[C@@H]2OP(=O)(OC3CCC3)OC[C@H]2O[C@H]1n1ccc(N)nc1=O (stereo partly shown) [Compound 27] | > 100 µM | –
16 | CCOc1nc(N)nc2c1ncn2[C@@H]1O[C@@H]2COP(=O)(OC(C)C)O[C@H]2[C@@]1(C)C#N (stereo partly shown) [Compound 28] | 2.7 µM | –
17 | C[C@@]1(C#N)[C@H](O)[C@@H](COP(=O)(O)OP(=O)(O)OP(=O)(O)O)O[C@H]1n1ccc(N)nc1=O [Compound 29] | – | IC50 [2]: 0.5 µM
18 | CC(C)OC(=O)[C@H](C)NP(=O)(OC[C@H]1O[C@@H](n2ccc(=O)[nH]c2=O)[C@](C)(C#N)[C@@H]1O)Oc1ccccc1Cl (stereo partly shown) [Compound 30] | 571 µM | –
19 | CC(C)COC(=O)[C@H](C)NP(=O)(OC[C@H]1O[C@@H](n2ccc(=O)[nH]c2=O)[C@](C)(C#N)[C@@H]1O)Oc1ccccc1 (stereo partly shown) [drawing 352] | – | EC50 [3]: 1.4 µM; Cytotoxicity [4]: >100 µM
20 | CCCCOC(=O)[C@H](C)NP(=O)(OC[C@H]1O[C@@H](n2ccc(=O)[nH]c2=O)[C@](C)(C#N)[C@@H]1O)Oc1cccc2ccccc12 (stereo partly shown) [drawing 354] | – | EC50 ([3]; Hepatitis C virus, 72 h): 2.7 µM; Cytotoxicity [4]: >100 µM
21 | CC(C)OC(=O)[C@H](C)NP(=O)(OC[C@H]1O[C@@H](n2ccc(N)nc2=O)[C@](C)(C#N)[C@@H]1O)Oc1ccccc1 (stereo partly shown) [drawing 359] | – | EC50 ([3]; Hepatitis C virus, 72 h): 5.2 µM; Cytotoxicity [4]: >100 µM
22 | CC(C)COC(=O)[C@H](C)NP(=O)(OC[C@H]1O[C@@H](n2ccc(=O)[nH]c2=O)[C@](C)(C#N)[C@@H]1O)Oc1ccccc1 (stereo partly shown) [drawing 360] | – | EC50 ([3]; Hepatitis C virus, 72 h): 1.3 µM; Cytotoxicity [4]: >100 µM
23 | CC(C)OC(=O)[C@H](C)NP(=O)(OC[C@H]1O[C@@H](n2ccc(N)nc2=O)[C@](C)(C#N)[C@@H]1O)Oc1ccccc1 (stereo partly shown) [drawing 363] | – | EC50 [5]: 0.9 µM; Cytotoxicity [4]: >100 µM
